From US20150344466A1 (SUMITOMO CHEMICAL COMPANY, LIMITED, priority 2013, published 2015)

Assays:
Type in all cases: in vivo
Blattella germanica [1] = experiment: Knockdown spray test on Blattella germanica, 2.0% w/v oil formulation (Test Example 1); details: topical, 0.25 h, active ingredient 2.0% w/v, 1.5 ml sprayed, within 15 minutes, read-out: knockdown rate of the test insects within 15 minutes
In short: (§1)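 Ten German cockroaches (5 males, 5 females) in a mesh-bottomed, butter-walled container were sprayed with 1.5 ml test solution from 60 cm at 0.42 kg/cm^2 inside a chamber.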

Musca domestica [2] = experiment: Knockdown spray test on adult Musca domestica (Test Example 3); details: topical, 0.25 h, active ingredient 2.0% w/v, 0.5 ml sprayed, within 15 minutes, read-out: knockdown rate of the test insects within 15 minutes
In short: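 Ten adult house flies (5 male, 5 female) in a gauze-covered cup sprayed with 0.5 ml test solution from 30 cm at 0.9 kg/cm^2 inside a chamber, then removed. Knocked-down flies counted at 2, 5 and 15 min and expressed as % of insects tested.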

Culex pipiens pallens [3] = experiment: Knockdown spray test on adult Culex pipiens pallens (Test Example 4); details: topical, 0.25 h, active ingredient 0.1% w/v, 0.5 ml sprayed, within 15 minutes, read-out: knockdown rate of the test insects within 15 minutes
In short: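 Ten adult mosquitoes in a gauze-covered cup inside a 46×46×70 cm chamber were sprayed with 0.5 ml of test solution from 30 cm at 0.4 kg/cm^2. The cup was removed at once, and knocked-down insects were counted at 2, 5 and 15 min; knockdown rate (%) = knocked-down/tested ×100.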

Aphis gossypii [4] = experiment: Soil treatment test on Aphis gossypii on cucumber (Test Example 9); details: 168 h, 5 ml treatment solution in contact with soil, seven days after putting insects, read-out: controlling value
Method: On the other hand, cucumber was planted in a polyethylene cup with a plurality of small holes on the bottom and grown until the first true leaf was spread. A cup in which cucumber was planted was put in a plastic cup with 5 ml of the test treatment solution, so that the soil in the cup was in contact with the treatment liquid. After five days, about 20Aphis gossypii were allowed to parasitize the cucumber, and seven days after putting insects, the number of Aphis gossypii was investigated, and the controlling value was calculated according to the following equation. Controlling value (%)={1−(Cb×Tai)/([…])}×100 In the equation, the symbols represent as follows. Cb: the number of insects in a non-treated section before treatment Cai: the number of insects in a non-treated section on observation Tb: the number of insects in a treated section before treatment Tai: the number of insects in a treated section on observation

Musca domestica [5] = experiment: Filter paper/sucrose bait death rate test on Musca domestica (Test Example 5); details: female imagoes of Musca domestica, 0.7 ml on filter paper, after 24 hours
In short: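 Filter paper in a 5.5 cm cup dosed with 0.7 ml test drug solution, with 30 mg sucrose as bait. Ten female adult houseflies released and cup sealed. Dead insects counted after 24 h; death rate (%) = dead/tested × 100.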

Blattella germanica [6] = experiment: Knockdown spray test on Blattella germanica, 0.1% w/v oil formulation (Test Example 2); details: topical, 0.25 h, active ingredient 0.1% w/v, 1.5 ml sprayed, within 15 minutes, read-out: knockdown rate of the test insects within 15 minutes
In short: as §1

Culex pipiens pallens [7] = experiment: Larvicidal test on Culex pipiens pallens, one day (Test Example 6); details: 24 h; last-instar larvae of Culex pipiens pallens; 3.5 ppm in water; one day later; read-out: death rate
Method: Each of the formulations of Compounds of Present Invention (39), (63), (71), (72), (92), (93), (95), (106), (150), (171), (170), (181), (182), (183), (187), (188), (189), (190), (191), (192), (200), (201), (201), (234), (246), (290) and (299) obtained in Formulation Example 15 was diluted with water, so as to have a concentration of the active ingredient of 500 ppm, to prepare a test drug solution.
20 last-instar larvae of Culex pipiens pallens were released into a liquid to which 0.7 ml of the above test drug solution was added to 100 ml of ion-exchanged water (a concentration of the active ingredient of 3.5 ppm). One day later, the life and death of the Culex pipiens pallens was examined, and the death rate was calculated. The death rate was calculated by the following equation.
Death rate (%)=(Number of dead insects/Number of tested insects)×100

Culex pipiens pallens [8] = experiment: Larvicidal test on Culex pipiens pallens, eight days (Test Example 7); details: 192 h; last-instar larvae of Culex pipiens pallens; 3.5 ppm in water; eight days later; read-out: death rate
In short: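 Twenty last-instar larvae placed in 100 ml ion-exchanged water containing test drug at 3.5 ppm active ingredient. Mortality scored after eight days; death rate = dead/tested × 100.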

Plutella xylostella = experiment: Foliar spray test on Plutella xylostella on cabbage (Test Example 10); details: 120 h, third instar larvae of Plutella xylostella on cabbage, 500 ppm spray 20 ml/cup, after five days, read-out: controlling value
In short: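 Cabbage at the third–fourth true-leaf stage sprayed with test solution at 20 ml/cup, dried, then infested with 10 third-instar larvae. Insects counted after five days; controlling value (%) calculated from treated and non-treated counts before treatment and at observation.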

Spodoptera litura = experiment: Foliar spray test on Spodoptera litura on cabbage (Test Example 11); details: 96 h, fourth instar larvae of Spodoptera litura on cabbage, 500 ppm spray 20 ml/cup, after 4 days, read-out: controlling value
In short: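 Cabbage is grown in cups to the third–fourth true leaf and sprayed at 20 ml/cup. Once the spray has dried, 10 fourth-instar larvae are released per cup and survivors are counted after 4 days. Controlling value (%) is corrected using pre-treatment and observation counts in treated and untreated sections.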

Aphis gossypii [9] = experiment: Foliar spray test on Aphis gossypii on cucumber (Test Example 8); details: 144 h, 500 ppm spray 20 ml/cup, Sir days after spraying, read-out: controlling value
Method: On the other hand, cucumber was planted in a polyethylene cup and grown until the first true leaf was spread, and about 20 Aphis gossypii were allowed to parasitize the cucumber. One day after, the test spray solution was sprayed to the cucumber at a ratio of 20 ml/cup. Sir days after spraying, the number of Aphis gossypii was investigated, and the controlling value was calculated according to the following equation. Controlling value (%)={1−(Cb×Tai)/(Cai×Tb)}×100 In the equation, the symbols represent as follows. Cb: the number of insects in a non-treated section before treatment Cai: the number of insects in a non-treated section on observation Tb: the number of insects in a treated section before treatment Tai: the number of insects in a treated section on observation

SMILES | pest or weed control at 2 % strength (Blattella germanica [1]) | pest or weed control at 2 % strength (Musca domestica [2]) | pest or weed control at 0.1 % strength (Culex pipiens pallens [3]) | pest or weed control at 500 ppm (Aphis gossypii [4]) | pest or weed control at 500 ppm (Musca domestica [5]) | pest or weed control at 0.1 % strength (Blattella germanica [6]) | pest or weed control at 3.5 ppm (Culex pipiens pallens [7]) | pest or weed control at 3.5 ppm (Culex pipiens pallens [8]) | pest or weed control at 500 ppm (Plutella xylostella) | pest or weed control at 500 ppm (Spodoptera litura) | pest or weed control at 500 ppm (Aphis gossypii [9])
O=C(NC[C@H]1CCOC1)c1cc(COCc2ccccc2)on1 [(33), N—[(R)-tetrahydrofuran-3-ylmethyl]-5-benzyloxymethylisoxazole-3-carboxamide] | ≥ 80% | ≥ 80% | ≥ 80% | ≥ 90% | – | – | – | – | – | – | –
O=C(NC1CCOCC1)c1cc(COCc2ccccc2)on1 [(43), N-(tetrahydropyran-4-yl)-5-benzyloxymethylisoxazole-3-carboxamide] | ≥ 80% | – | ≥ 80% | ≥ 90% | – | – | – | – | – | – | –
O=C(NC[C@@H]1CCOC1)c1cc(COCc2ccccc2)on1 [(34), N—[(S)-tetrahydrofuran-3-ylmethyl]-5-benzyloxymethylisoxazole-3-carboxamide] | ≥ 80% | ≥ 80% | ≥ 80% | ≥ 90% | ≥ 90% | – | – | – | – | – | –
CC1(CNC(=O)c2cc(COCc3ccccc3)on2)CCOC1 (stereo not drawn) [(36), N-(3-methyltetrahydrofuran-3-ylmethyl)-5-benzyloxymethylisoxazole-3-carboxamide] | ≥ 80% | ≥ 80% | ≥ 80% | ≥ 90% | – | – | – | – | – | – | –
O=C(NCC1CCOCC1)c1cc(COCc2ccc3c(c2)OCO3)on1 [(106), N-(tetrahydropyran-4-ylmethyl)-5-(3,4-methylenedioxybenzyloxymethyl)isoxazole-3-carboxamide] | – | – | ≥ 80% | ≥ 90% | – | ≥ 80% | ≥ 90% | ≥ 90% | ≥ 90% | ≥ 80% | –
O=C(NCC1CCOCC1)c1cc(COCc2ccc(F)cc2)on1 [(90), N-(tetrahydropyran-4-ylmethyl)-5-(4-fluorobenzyloxymethyl)isoxazole-3-carboxamide] | – | – | ≥ 80% | ≥ 90% | ≥ 90% | ≥ 80% | – | – | – | – | –
O=C(NCC1COCCO1)c1cc(COCc2ccccc2)on1 (stereo not drawn) [(31)] | ≥ 80% | – | ≥ 80% | ≥ 90% | – | – | – | – | – | – | –
O=C(NCC1CCOC1)c1cc(COCc2ccc3c(c2)OCO3)on1 (stereo not drawn) [(105), N-(tetrahydrofuran-3-ylmethyl)-5-(3,4-methylenedioxybenzyloxymethyl)isoxazole-3-carboxamide] | – | – | ≥ 80% | ≥ 90% | ≥ 90% | ≥ 80% | – | ≥ 90% | ≥ 90% | ≥ 80% | –
O=C(NCC1CCOC1)c1cn(Cc2ccccc2)nn1 (stereo not drawn) [(9)] | – | – | – | ≥ 90% | ≥ 90% | – | – | – | – | – | –
O=C(NCC1CCOC1)c1cc(CCCCCCO)on1 (stereo not drawn) [(144), N-(tetrahydrofuran-3-ylmethyl)-5-(6-hydroxyhexyl)isoxazole-3-carboxamide] | – | – | – | – | – | – | – | – | – | – | ≥ 90%
O=C(NCCC1CCOC1)c1cc(COCc2ccccc2)on1 (stereo not drawn) [(30), N-[2-(tetrahydrofuran-3-yl)ethyl]-5-benzyloxymethylisoxazole-3-carboxamide] | ≥ 80% | ≥ 80% | ≥ 80% | ≥ 90% | – | – | – | – | – | – | –
O=C(NCC1CCOCC1)c1cc(COCc2ccc(OC(F)(F)F)cc2)on1 [(94), N-(tetrahydropyran-4-ylmethyl)-5-(4-trifluoromethoxybenzyloxymethyl)isoxazole-3-carboxamide] | – | – | ≥ 80% | – | – | ≥ 80% | – | – | ≥ 90% | – | ≥ 90%
